Data set [1] is described as follows: Unbound brain to plasma ratio (Kpuu,brain), from brain and plasma concentrations and equilibrium dialysis unbound fractions. Conditions: Sprague-Dawley, brain homogenate / plasma (unbound), intravenous, 1 mg/kg/hr; rat; calculated from brain and plasma concentrations and fu,brain (brain homogenate equilibrium dialysis), mean. It counts as in vivo, Sprague-Dawley rats. As to the method: The brain penetration of the compounds disclosed herein was measured in Sprague-Dawley rats (3/compound). The animals received IV infusion of 1 mg/kg/hr of the compound over 8 hours via jugular vein cannulation. At 24 hours, blood was collected via tail vein bleeding or cardiac puncture (under anesthesia) and centrifuged to obtain plasma samples. Brain tissues were collected and homogenized with phosphate-buffered saline (PBS). The concentrations of the compounds were obtained in the plasma and brain homogenates by LC-MS/MS analysis.
Rat plasma protein binding of the tested compounds were evaluated in vitro using an equilibrium dialysis method. The tested compounds were assessed in 100% plasma in a dialysis block for 5 hours at 37° C. Samples from the donor and receiver sides were analyzed by LC-MS/MS. Plasma protein bound and unbound fractions were calculated using the following equations— […]
where: [Donor]5h is measured donor concentration at 5-hour; [Received]5h is measured receiver concentration at 5-hour; fb* is bound fraction determined from plasma; fu,p* is calculated unbound fraction for plasma. […]
Similarly, rat brain protein binding of the tested compounds was also evaluated in vitro using equilibrium dialysis method. […] of the compound was assessed in brain homogenate in a dialysis block for 5 hours at 37° C. Samples from the donor and receiver sides were analyzed by LC-MS/MS. […]

Data set [2] is described as follows: Brain penetration in rats: brain to plasma ratio (Kp,brain). It counts as in vivo. Conditions: rat; Sprague-Dawley rats (3/compound), IV infusion 1 mg/kg/hr over 8 hours, plasma and brain homogenate at 24 hours, Cbrain/Cplasma, mean. From the text:
To understand the brain penetration, brain to plasma ratios of the compounds were obtained in Sprague-Dawley (SD) rats. In vivo equilibrium distribution between blood and brain in preclinical species such as rats is a commonly used parameter to evaluate brain penetration. Kp,brain is the ratio of concentrations in brain and blood (Cbrain/Cplasma). The compound's passive diffusion characteristics, its affinity for membrane transporters at the blood-brain barrier (BBB), and the relative drug binding affinity differences between the plasma proteins and brain tissue influence the Kp,brain. Compounds with Kp,brain smaller than 0.1 have restricted access to the CNS, whereas compounds with Kp,brain greater than 0.3-0.5 are considered to have good brain penetration and compounds with Kp,brain greater than 1 freely cross the BBB (Expert Opin. Drug Delivery (2016) 13 (01): 85-92).
The brain penetration of the compounds disclosed herein was measured in Sprague-Dawley rats (3/compound). The animals received IV infusion of 1 mg/kg/hr of the compound over 8 hours via jugular vein cannulation. At 24 hours, blood was collected via tail vein bleeding or cardiac puncture (under anesthesia) and centrifuged to obtain plasma samples. Brain tissues were collected and homogenized with phosphate-buffered saline (PBS). […]

Another data set addresses KIT D816V (Homo sapiens, UniProt P10721, D816V). The data set is described as follows: KIT (D816V) mutant biochemical enzymatic activity inhibition assay (EZReader 2 mobility shift) at APPKM for ATP. Conditions: 0.3 nM enzyme, 20 μM ATP (APPKM), 1 μM Src tide, 25° C., 60 minutes; read-out: Kit D816V @ ATP Km IC50. An excerpt: PDGFRα and KIT enzymatic activity was monitored using the Perkin Elmer electrophoretic mobility shift technology platform, the EZReader 2.
Within the linear, steady-state phase of the kinase enzymatic reaction, the mixed pool of phosphorylated (product) and non-phosphorylated (substrate) peptides was passed through the microfluidic system of the PerkinElmer EZ Reader 2, under an applied electric potential difference. The presence of the phosphate group on the product peptide provided a difference in mass and charge between that of the substrate peptide, resulting in a separation of the substrate and product pools in the sample (Perrin et al., Expert Opin Drug Discovery 2010, Jan. 5(1):51-63).
As the product and substrate peptide mixture passes the lasers within the instrument, these pools are detected (λex=488 nm, λem=568 nm) and resolved as separate peaks. The ratio between these peaks reflects the activity of the compound at that concentration, in that well, under those conditions.
All test articles were dissolved in 100% DMSO at a stock concentration of 10 mM. A 100×, 10-point, 4-fold serial dilution of all test compounds was created in 100% DMSO, starting at a relevant concentration, usually 1 mM. A volume of 130 nL of each concentration was transferred to the relevant well of a 384-well assay plate (Greiner 781 201) using a TTPLabtech Mosquito nano-liter dispenser. Using the Multidrop, the remaining constituents of the reaction were then added to the 130 nL of compound as follows:
The reaction was stopped by the addition of 70 μl of Stop buffer (100 mM HEPES pH 7.5, 0.015% Brij 35, 35 mM EDTA and 0.2% of Coating Reagent 3, Caliper Lifesciences). The plate was read on a Caliper EZReader 2. For biochemical D816V and D842V activity, the following designations are used: ≤0.30 nM=A; ≥0.31 and <1.4 nM=B; ≥1.4 nM=C; and ND=not determined.

Molecules are shown by their SMILES. Structures can show the parent of a compound that is named as a salt.

Sequence of KIT D816V (P10721 26-976 D816V): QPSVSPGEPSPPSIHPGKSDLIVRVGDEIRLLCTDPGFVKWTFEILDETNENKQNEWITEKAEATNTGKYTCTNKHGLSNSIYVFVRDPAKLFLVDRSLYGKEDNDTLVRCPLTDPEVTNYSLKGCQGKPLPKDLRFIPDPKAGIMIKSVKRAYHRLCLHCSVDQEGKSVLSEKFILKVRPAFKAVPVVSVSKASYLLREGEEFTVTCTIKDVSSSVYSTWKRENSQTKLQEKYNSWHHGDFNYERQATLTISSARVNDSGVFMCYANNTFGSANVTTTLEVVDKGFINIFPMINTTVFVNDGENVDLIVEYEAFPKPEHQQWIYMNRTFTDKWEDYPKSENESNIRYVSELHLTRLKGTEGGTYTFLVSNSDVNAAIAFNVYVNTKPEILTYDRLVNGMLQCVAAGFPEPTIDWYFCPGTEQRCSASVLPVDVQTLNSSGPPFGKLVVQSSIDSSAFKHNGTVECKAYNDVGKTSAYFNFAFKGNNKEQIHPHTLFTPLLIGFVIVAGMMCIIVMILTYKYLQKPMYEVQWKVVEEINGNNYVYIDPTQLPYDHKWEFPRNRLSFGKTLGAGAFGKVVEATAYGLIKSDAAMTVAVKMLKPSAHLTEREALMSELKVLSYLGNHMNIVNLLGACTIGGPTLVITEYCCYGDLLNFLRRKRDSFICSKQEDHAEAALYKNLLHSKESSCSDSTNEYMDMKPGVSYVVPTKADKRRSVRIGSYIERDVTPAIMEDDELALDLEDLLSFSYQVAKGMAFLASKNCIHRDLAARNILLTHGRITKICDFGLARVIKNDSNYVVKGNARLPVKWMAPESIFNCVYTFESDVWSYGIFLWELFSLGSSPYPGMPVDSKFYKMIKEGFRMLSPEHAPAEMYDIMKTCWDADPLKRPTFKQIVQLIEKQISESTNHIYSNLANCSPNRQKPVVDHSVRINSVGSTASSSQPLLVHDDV

As to `C[C@](N)(c1ccc(F)cc1)c1cnc(C2=CCN(c3ncnn4cc(-c5cnn(CCO)c5)cc34)CC2)nc1` [Compound 1, (S)-2-(4-(4-(4-(5-(1-amino-1-(4-fluorophenyl)ethyl)pyrimidin-2-yl)-3,6-dihydropyridin-1(2H)-yl)pyrrolo[2,1-f][1,2,4]triazin-6-yl)-1H-pyrazol-1-yl)ethan-1-ol], the Kp uu at 24 h in data set [1] was 0.017. Moreover, in data set [2], the Kp at 24 h came out at 0.133. The IC50 at KIT D816V lay in the range of 0.31 to 1.4 nM.

`C[C@](N)(c1ccc(F)cc1)c1cnc(N2CCN(c3ncnc4[nH]c(-c5cnn(CCO)c5)cc34)CC2)nc1.Cl` [Compound 2, (S)-2-(4-(4-(4-(5-(1-amino-1-(4-fluorophenyl)ethyl)pyrimidin-2-yl)piperazin-1-yl)-7H-pyrrolo[2,3-d]pyrimidin-6-yl)-1H-pyrazol-1-yl)ethan-1-ol hydrochloride]: the Kp uu at 24 h in data set [1] is 0.01. The Kp at 24 h in data set [2] was 0.045. Further, the IC50 on KIT D816V is at most 0.3 nM. Consider `C[C@](N)(c1ccc(F)cc1)c1cnc(N2CCN(c3ncnc4[nH]c(-c5cnn(C6COC6)c5)cc34)CC2)nc1` [Compound 3, (S)-1-(4-fluorophenyl)-1-(2-(4-(6-(1-(oxetan-3-yl)-1H-pyrazol-4-yl)-7H-pyrrolo[2,3-d]pyrimidin-4-yl)piperazin-1-yl)pyrimidin-5-yl)ethan-1-amine], for which the IC50 on KIT D816V is at most 0.3 nM. Take `C[C@@H](O)Cn1cc(-c2cc3c(N4CCN(c5ncc([C@@](C)(N)c6ccc(F)cc6)cn5)CC4)ncnc3[nH]2)cn1` [Compound 4, (R)-1-(4-(4-(4-(5-((S)-1-amino-1-(4-fluorophenyl)ethyl)pyrimidin-2-yl)piperazin-1-yl)-7H-pyrrolo[2,3-d]pyrimidin-6-yl)-1H-pyrazol-1-yl)propan-2-ol]: the IC50 on KIT D816V was in the range of 0.31 to 1.4 nM. Still for that read-out and setting: the figure for `C[C@H](O)Cn1cc(-c2cc3c(N4CCN(c5ncc([C@@](C)(N)c6ccc(F)cc6)cn5)CC4)ncnc3[nH]2)cn1` [Compound 5, (S)-1-(4-(4-(4-(5-((S)-1-amino-1-(4-fluorophenyl)ethyl)pyrimidin-2-yl)piperazin-1-yl)-7H-pyrrolo[2,3-d]pyrimidin-6-yl)-1H-pyrazol-1-yl)propan-2-ol hydrochloride] is 0.31 to 1.4 nM. Same read-out and setting: the figure for `C[C@](N)(c1ccc(F)cc1)c1cnc(N2CCN(c3ncnc4[nH]c(-c5cnn(CC6COC6)c5)cc34)CC2)nc1` [Compound 6, (S)-1-(4-fluorophenyl)-1-(2-(4-(6-(1-(oxetan-3-ylmethyl)-1H-pyrazol-4-yl)-7H-pyrrolo[2,3-d]pyrimidin-4-yl)piperazin-1-yl)pyrimidin-5-yl)ethan-1-amine hydrochloride] is 0.31 to 1.4 nM.

As a reminder, the Kp is the ratio of the level in a tissue or fluid to that in plasma or blood. In general, IC50 refers to the concentration needed to halve the response being measured.

Values taken from US20240010652A1, “COMPOSITIONS AND METHODS FOR TREATING KIT- AND PDGFRA-MEDIATED DISEASES” (Blueprint Medicines Corporation, priority 2020, published 2024).
